Numbers after ± are expanded uncertainties.
Experiment: mn = molality of the nth substance listed, in mol/kg
Conditions: 101 kPa, Liquid; for mass density: Vibrating tube method; for speed of sound: Pulse-echo method

O=S(=O)([O-])C(F)(F)F.O=S(=O)([O-])C(F)(F)F.O=S(=O)([O-])C(F)(F)F.[Gd+3] [gadolinium (III) trifluoromethanesulfonate] + CC(=O)N(C)C
Conditions	mass density, 283.15 K [kg/m3]	mass density, 293.15 K [kg/m3]	mass density, 298.15 K [kg/m3]	mass density, 303.15 K [kg/m3]	mass density, 313.15 K [kg/m3]	mass density, 323.15 K [kg/m3]	mass density, 333.15 K [kg/m3]	speed of sound, 298.15 K [m/s]
m1 = 0.02128	959.25 ± 0.9	950.04 ± 0.9	945.43 ± 0.9	940.82 ± 0.9	931.58 ± 0.9	922.32 ± 0.9	913.01 ± 0.9	1456.1 ± 1.3
m1 = 0.02915	962.65 ± 0.9	953.45 ± 0.9	948.84 ± 0.9	944.24 ± 0.9	935 ± 0.9	925.73 ± 0.9	916.44 ± 0.91	1455.9 ± 1.3
m1 = 0.03784	966.42 ± 0.91	957.21 ± 0.91	952.61 ± 0.91	948.01 ± 0.91	938.78 ± 0.91	929.52 ± 0.91	920.23 ± 0.91	1455.7 ± 1.3
m1 = 0.04864	971.16 ± 0.92	961.95 ± 0.92	957.35 ± 0.92	952.76 ± 0.92	943.52 ± 0.92	934.27 ± 0.92	924.97 ± 0.92	1455.4 ± 1.3
m1 = 0.05951	975.96 ± 0.92	966.76 ± 0.92	962.16 ± 0.92	957.57 ± 0.92	948.33 ± 0.92	939.08 ± 0.92	929.78 ± 0.92	1455 ± 1.3
m1 = 0.07557	983.07 ± 0.93	973.86 ± 0.93	969.27 ± 0.93	964.67 ± 0.93	955.44 ± 0.93	946.19 ± 0.93	936.89 ± 0.93	1454.7 ± 1.3
m1 = 0.0965	992.52 ± 0.95	983.33 ± 0.95	978.73 ± 0.95	974.12 ± 0.95	964.89 ± 0.95	955.64 ± 0.95	946.35 ± 0.95	1454 ± 1.3
m1 = 0.1165	1001.67 ± 0.97	992.48 ± 0.96	987.87 ± 0.96	983.27 ± 0.96	974.05 ± 0.96	964.79 ± 0.96	955.49 ± 0.96	1453.6 ± 1.3
m1 = 0.1341	1009.86 ± 0.98	1000.66 ± 0.98	996.06 ± 0.98	991.46 ± 0.98	982.24 ± 0.98	972.98 ± 0.98	963.68 ± 0.98	1452.9 ± 1.4
m1 = 0.1567	1020.47 ± 1	1011.27 ± 1	1006.67 ± 1	1002.09 ± 1	992.85 ± 1	983.6 ± 1	974.31 ± 1	1452.5 ± 1.4
m1 = 0.1757	1029.6 ± 1	1020.41 ± 1	1015.81 ± 1	1011.21 ± 1	1001.99 ± 1	992.73 ± 1	983.44 ± 1	1451.8 ± 1.4

Reference: the NIST ThermoML archive (doi:10.1016/j.jct.2012.11.004)
